From patent US20250353891A1 (MEDIMMUNE LIMITED, priority 2022, published 2025) come the findings set out here.

In assay [1] the target is human GLP-1 receptor (hGLP-1R) (Homo sapiens, UniProt P43220). In words: cAMP production (HTRF) in CHO cells expressing hGLP-1R. The format is cell-based. Also on record: expressed in transfected cells. As to conditions: for EC50: Table 6, peptides modified at position 17, cAMP in CHO hGLP-1R cells, geometric mean, read-out: hGLP-1R EC50; for % Relative Potency Ratio: Table 6, % GLP-1R activity relative to GLP-1 / % GlucR activity relative to glucagon. In a few lines: (§1)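 Cells were resuspended in assay buffer at batch-optimized density, typically 1×10^5 cells/mL for hGLP-1R and 2×10^5 cells/mL for hGCGR. After 30 min incubation at room temperature with compound, cAMP was measured by two-step HTRF. EC50 values came from 4-parameter logistic fits of % Delta F.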
Sequence of human GLP-1 receptor (hGLP-1R) (P43220 24-463): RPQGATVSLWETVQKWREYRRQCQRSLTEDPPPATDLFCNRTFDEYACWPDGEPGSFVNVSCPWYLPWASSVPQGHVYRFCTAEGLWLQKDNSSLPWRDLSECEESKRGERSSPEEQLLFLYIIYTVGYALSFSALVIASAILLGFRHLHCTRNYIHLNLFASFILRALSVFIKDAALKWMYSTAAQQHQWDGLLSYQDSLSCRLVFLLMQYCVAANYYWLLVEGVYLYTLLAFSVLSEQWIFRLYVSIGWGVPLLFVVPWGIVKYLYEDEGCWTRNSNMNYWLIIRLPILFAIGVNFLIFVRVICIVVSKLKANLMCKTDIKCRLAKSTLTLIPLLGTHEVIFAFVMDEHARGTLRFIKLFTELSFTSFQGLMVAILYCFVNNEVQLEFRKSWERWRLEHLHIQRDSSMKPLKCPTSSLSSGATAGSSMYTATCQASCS
In general terms: cAMP levels reflect the balance of adenylyl cyclase and phosphodiesterase activity.

Assay [2] addresses human glucagon receptor (hGCGR) (Homo sapiens, UniProt P47871). In words: cAMP production (HTRF) in CHO cells expressing hGCGR. It is filed as cell-based. Also on record: expressed in transfected cells. The note with it: Table 6, peptides modified at position 17; cAMP in CHO hGCGR cells; geometric mean; read-out: hGluc-R EC50. A digest of the protocol: as §1

Starred links: 1 amine or outer side, 2 acyl side, 3 side chain; linkers in the order of their positions; H or OH if unused. Non-standard residues stand in square brackets, D forms with d. Residues, ends and D or L forms follow the SMILES beside them. Groups on a side chain read outwards from the residue. *: point of attachment. PEG12 = NCCOCCOCCOCCOCCOCCOCCOCCOCCOCCOCCOCCOCCC(=O)O; C18 diacid = O=C(O)CCCCCCCCCCCCCCCCC(=O)*; PEG8 = NCCOCCOCCOCCOCCOCCOCCOCCOCCC(=O)O; Dip = N[C@H](C(=O)O)C(c1ccccc1)c1ccccc1; γGlu = O=C(O)[C@H](CCC(=O)[*:2])N[*:1]; Stearoyl = CCCCCCCCCCCCCCCCCC(=O)*; αMeF = C[C@](N)(Cc1ccccc1)C(=O)O; PEG4 = NCCOCCOCCOCCOCCC(=O)O; PEG2 = NCCOCCOCCC(=O)O; AEEA = NCCOCCOCC(=O)O; Aib = CC(C)(N)C(=O)O

Sequence of human glucagon receptor (hGCGR) (P47871 26-477): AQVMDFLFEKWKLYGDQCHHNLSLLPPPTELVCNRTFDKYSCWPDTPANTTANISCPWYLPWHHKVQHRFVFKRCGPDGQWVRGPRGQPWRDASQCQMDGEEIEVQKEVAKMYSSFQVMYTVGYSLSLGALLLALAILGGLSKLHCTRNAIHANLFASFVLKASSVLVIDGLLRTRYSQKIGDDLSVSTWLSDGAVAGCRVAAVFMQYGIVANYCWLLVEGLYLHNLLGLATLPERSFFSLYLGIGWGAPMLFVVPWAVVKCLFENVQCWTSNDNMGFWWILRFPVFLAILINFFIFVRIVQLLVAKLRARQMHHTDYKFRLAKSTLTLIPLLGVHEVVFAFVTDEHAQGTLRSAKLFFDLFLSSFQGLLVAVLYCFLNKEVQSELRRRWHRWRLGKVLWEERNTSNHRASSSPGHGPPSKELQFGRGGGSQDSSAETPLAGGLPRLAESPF

A word on the EC50: it is the concentration needed to bring the measured effect to its halfway point. Turning to `CC(C)C[C@H](NC(=O)C(C)(C)NC(=O)[C@H](CCC(N)=O)NC(=O)[C@@H](NC(=O)[C@H](Cc1ccccc1)NC(=O)[C@H](CC(=O)O)NC(=O)[C@H](CCC(N)=O)NC(=O)[C@H](C)NC(=O)[C@H](CCCNC(=N)N)NC(=O)[C@H](CCCCNC(=O)COCCOCCNC(=O)COCCOCCNC(=O)CC[C@H](NC(=O)CCCCCCCCCCCCCCCCC(=O)O)C(=O)O)NC(=O)[C@H](CO)NC(=O)[C@H](CC(=O)O)NC(=O)[C@H](CC(C)C)NC(=O)[C@](C)(Cc1ccccc1)NC(=O)[C@H](CCCCN)NC(=O)[C@H](CO)NC(=O)[C@@H](NC(=O)[C@H](CC(=O)O)NC(=O)[C@H](CO)NC(=O)[C@@H](NC(=O)[C@H](Cc1ccccc1)NC(=O)[C@@H](NC(=O)CNC(=O)[C@H](CCC(N)=O)NC(=O)C(C)(C)NC(=O)[C@@H](N)Cc1c[nH]cn1)[C@@H](C)O)[C@@H](C)O)C(C)C)C(C)C)C(=O)N[C@H](C(=O)N[C@@H](C)C(=O)N[C@H](C(=O)O)[C@@H](C)O)C(C)C` [Peptide 42] (H-H[Aib]QGTFTSDVSK[αMeF]LDSK([AEEA-AEEA-γGlu-C18 diacid])RAQDFVQ[Aib]LVAT-OH; N-terminus assumed), in assay [1], the EC50 turned out to be 0.665 nM and the “% Relative Potency Ratio” value is recorded as 24.4. Also, the EC50 in assay [2] stood at 8.19 nM.
For `CCCCCCCCCCCCCCCCCC(=O)N[C@@H](CCC(=O)N[C@@H](CCC(=O)NCCOCCOCCC(=O)NCCOCCOCCC(=O)NCCCC[C@H](NC(=O)[C@H](CO)NC(=O)[C@H](CC(=O)O)NC(=O)[C@H](CC(C)C)NC(=O)[C@@H](NC(=O)[C@H](CCCCN)NC(=O)[C@H](CO)NC(=O)[C@@H](NC(=O)[C@H](CC(=O)O)NC(=O)[C@H](CO)NC(=O)[C@@H](NC(=O)[C@](C)(Cc1ccccc1)NC(=O)[C@H](CO)NC(=O)CNC(=O)[C@H](CCC(N)=O)NC(=O)[C@H](CO)NC(=O)[C@@H](N)Cc1c[nH]cn1)[C@@H](C)O)C(C)C)C(c1ccccc1)c1ccccc1)C(=O)N[C@@H](C)C(=O)N[C@@H](C)C(=O)N[C@@H](CCC(N)=O)C(=O)N[C@@H](CC(=O)O)C(=O)N[C@@](C)(Cc1ccccc1)C(=O)N[C@H](C(=O)N[C@@H](CCC(N)=O)C(=O)NC(C)(C)C(=O)N[C@H](C(=O)N[C@@H](C)C(=O)N[C@@H](CC(N)=O)C(N)=O)[C@@H](C)CC)C(C)C)C(=O)O)C(=O)O` [Peptide 54] (H-HSQGS[αMeF]TSDVSK[Dip]LDSK([PEG2-PEG2-γGlu-γGlu-Stearoyl])AAQD[αMeF]VQ[Aib]IAN-NH2; N-terminus assumed) the same measures were 0.00281 nM, 1.8 and 0.00259 nM.
The corresponding values for `CCCCCCCCCCCCCCCCCC(=O)N[C@@H](CCC(=O)N[C@@H](CCC(=O)NCCOCCOCCC(=O)NCCOCCOCCC(=O)NCCCC[C@H](NC(=O)[C@H](CO)NC(=O)[C@H](CC(=O)O)NC(=O)[C@H](CC(C)C)NC(=O)[C@@H](NC(=O)[C@H](CCCCN)NC(=O)[C@H](CO)NC(=O)[C@@H](NC(=O)[C@H](CC(=O)O)NC(=O)[C@H](CO)NC(=O)[C@@H](NC(=O)[C@](C)(Cc1ccccc1)NC(=O)[C@H](CO)NC(=O)CNC(=O)[C@H](CCC(N)=O)NC(=O)[C@H](CO)NC(=O)[C@@H](N)Cc1c[nH]cn1)[C@@H](C)O)C(C)C)C(c1ccccc1)c1ccccc1)C(=O)N[C@@H](C)C(=O)N[C@@H](C)C(=O)N[C@@H](CCC(N)=O)C(=O)N[C@@H](CC(=O)O)C(=O)N[C@@](C)(Cc1ccccc1)C(=O)N[C@H](C(=O)N[C@@H](CCC(N)=O)C(=O)N[C@H](C(=O)N[C@@H](CC(C)C)C(=O)N[C@@H](CCC(=O)O)C(=O)N[C@@H](C)C(N)=O)C(c1ccccc1)c1ccccc1)C(C)C)C(=O)O)C(=O)O` [Peptide 55] (H-HSQGS[αMeF]TSDVSK[Dip]LDSK([PEG2-PEG2-γGlu-γGlu-Stearoyl])AAQD[αMeF]VQ[Dip]LEA-NH2; N-terminus assumed) are 0.0188 nM, 2.0 and 0.0191 nM.
For `CCCCCCCCCCCCCCCCCC(=O)N[C@@H](CCC(=O)N[C@@H](CCC(=O)NCCOCCOCCOCCOCCC(=O)NCCCC[C@H](NC(=O)[C@H](CO)NC(=O)[C@H](CC(=O)O)NC(=O)[C@H](CC(C)C)NC(=O)[C@@H](NC(=O)[C@H](CCCCN)NC(=O)[C@H](CO)NC(=O)[C@@H](NC(=O)[C@H](CC(=O)O)NC(=O)[C@H](CO)NC(=O)[C@@H](NC(=O)[C@](C)(Cc1ccccc1)NC(=O)[C@H](CO)NC(=O)CNC(=O)[C@H](CCC(N)=O)NC(=O)[C@H](CO)NC(=O)[C@@H](N)Cc1c[nH]cn1)[C@@H](C)O)C(C)C)C(c1ccccc1)c1ccccc1)C(=O)N[C@@H](C)C(=O)N[C@@H](C)C(=O)N[C@@H](CCC(N)=O)C(=O)N[C@@H](CC(=O)O)C(=O)N[C@@](C)(Cc1ccccc1)C(=O)N[C@H](C(=O)N[C@@H](CCC(=O)O)C(=O)NC(C)(C)C(=O)N[C@H](C(=O)N[C@H](C(=O)N[C@@H](CC(N)=O)C(=O)N[C@H](C(N)=O)[C@@H](C)O)[C@@H](C)CC)[C@@H](C)CC)C(C)C)C(=O)O)C(=O)O` [Peptide 56] (H-HSQGS[αMeF]TSDVSK[Dip]LDSK([PEG4-γGlu-γGlu-Stearoyl])AAQD[αMeF]VE[Aib]IINT-NH2; N-terminus assumed) the same measures were 0.00486 nM, 4.4 and 0.0109 nM.
Take `CCCCCCCCCCCCCCCCCC(=O)N[C@@H](CCC(=O)N[C@@H](CCC(=O)NCCOCCOCCOCCOCCOCCOCCOCCOCCC(=O)NCCCC[C@H](NC(=O)[C@H](CO)NC(=O)[C@H](CC(=O)O)NC(=O)[C@H](CC(C)C)NC(=O)[C@@H](NC(=O)[C@H](CCCCN)NC(=O)[C@H](CO)NC(=O)[C@@H](NC(=O)[C@H](CC(=O)O)NC(=O)[C@H](CO)NC(=O)[C@@H](NC(=O)[C@](C)(Cc1ccccc1)NC(=O)[C@H](CO)NC(=O)CNC(=O)[C@H](CCC(N)=O)NC(=O)[C@H](CO)NC(=O)[C@@H](N)Cc1c[nH]cn1)[C@@H](C)O)C(C)C)C(c1ccccc1)c1ccccc1)C(=O)N[C@@H](C)C(=O)N[C@@H](C)C(=O)N[C@@H](CCC(N)=O)C(=O)N[C@@H](CC(=O)O)C(=O)N[C@@](C)(Cc1ccccc1)C(=O)N[C@H](C(=O)N[C@@H](CCC(=O)O)C(=O)NC(C)(C)C(=O)N[C@H](C(=O)N[C@H](C(=O)N[C@@H](CC(N)=O)C(=O)N[C@H](C(N)=O)[C@@H](C)O)[C@@H](C)CC)[C@@H](C)CC)C(C)C)C(=O)O)C(=O)O` [Peptide 57] (H-HSQGS[αMeF]TSDVSK[Dip]LDSK([PEG8-γGlu-γGlu-Stearoyl])AAQD[αMeF]VE[Aib]IINT-NH2; N-terminus assumed): in assay [1], the concentration giving a half-maximal response (EC50) was 0.00909 nM and the “% Relative Potency Ratio” value was 3.7. Moreover, in assay [2], the EC50 was 0.0169 nM.
Take `CCCCCCCCCCCCCCCCCC(=O)N[C@@H](CCC(=O)N[C@@H](CCC(=O)NCCOCCOCCOCCOCCOCCOCCOCCOCCOCCOCCOCCOCCC(=O)NCCCC[C@H](NC(=O)[C@H](CO)NC(=O)[C@H](CC(=O)O)NC(=O)[C@H](CC(C)C)NC(=O)[C@@H](NC(=O)[C@H](CCCCN)NC(=O)[C@H](CO)NC(=O)[C@@H](NC(=O)[C@H](CC(=O)O)NC(=O)[C@H](CO)NC(=O)[C@@H](NC(=O)[C@](C)(Cc1ccccc1)NC(=O)[C@H](CO)NC(=O)CNC(=O)[C@H](CCC(N)=O)NC(=O)[C@H](CO)NC(=O)[C@@H](N)Cc1c[nH]cn1)[C@@H](C)O)C(C)C)C(c1ccccc1)c1ccccc1)C(=O)N[C@@H](C)C(=O)N[C@@H](C)C(=O)N[C@@H](CCC(N)=O)C(=O)N[C@@H](CC(=O)O)C(=O)N[C@@](C)(Cc1ccccc1)C(=O)N[C@H](C(=O)N[C@@H](CCC(=O)O)C(=O)NC(C)(C)C(=O)N[C@H](C(=O)N[C@H](C(=O)N[C@@H](CC(N)=O)C(=O)N[C@H](C(N)=O)[C@@H](C)O)[C@@H](C)CC)[C@@H](C)CC)C(C)C)C(=O)O)C(=O)O` [Peptide 58] (H-HSQGS[αMeF]TSDVSK[Dip]LDSK([PEG12-γGlu-γGlu-Stearoyl])AAQD[αMeF]VE[Aib]IINT-NH2; N-terminus assumed): the values for the EC50 in assay [1] and in assay [2] were 0.0039 nM and 0.0113 nM, respectively. The “% Relative Potency Ratio” value in assay [1] came out at 5.7.
For `CCCCCCCCCCCCCCCCCC(=O)NCCOCCOCCC(=O)NCCOCCOCCC(=O)N[C@@H](CCC(=O)N[C@@H](CCC(=O)NCCCC[C@H](NC(=O)[C@H](CO)NC(=O)[C@H](CC(=O)O)NC(=O)[C@H](CC(C)C)NC(=O)[C@@H](NC(=O)[C@H](CCCCN)NC(=O)[C@H](CO)NC(=O)[C@@H](NC(=O)[C@H](CC(=O)O)NC(=O)[C@H](CO)NC(=O)[C@@H](NC(=O)[C@](C)(Cc1ccccc1)NC(=O)[C@H](CO)NC(=O)CNC(=O)[C@H](CCC(N)=O)NC(=O)[C@H](CO)NC(=O)[C@@H](N)Cc1c[nH]cn1)[C@@H](C)O)C(C)C)C(c1ccccc1)c1ccccc1)C(=O)N[C@@H](C)C(=O)N[C@@H](C)C(=O)N[C@@H](CCC(N)=O)C(=O)N[C@@H](CC(=O)O)C(=O)N[C@@](C)(Cc1ccccc1)C(=O)N[C@H](C(=O)N[C@@H](CCC(=O)O)C(=O)NC(C)(C)C(=O)N[C@H](C(=O)N[C@H](C(=O)N[C@@H](CC(N)=O)C(=O)N[C@H](C(N)=O)[C@@H](C)O)[C@@H](C)CC)[C@@H](C)CC)C(C)C)C(=O)O)C(=O)O` [Peptide 59] (H-HSQGS[αMeF]TSDVSK[Dip]LDSK([γGlu-γGlu-PEG2-PEG2-Stearoyl])AAQD[αMeF]VE[Aib]IINT-NH2; N-terminus assumed) the same measures were 0.00618 nM, 0.0284 nM and 9.1.
